Measured values from PubChem BioAssay (NCI).
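Briefly, cells in 96-well plates were exposed to five compound concentrations for 48 h, and endpoints were estimated by linear interpolation. Here, GI50 denotes the concentration required for 50% inhibition of growth. At the TGI there is no net growth.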

Assays:
Assay in all cases: NCI-60 cell line screen, 48 h
[1] = test system: CCRF-CEM leukemia
[2] = test system: NCI-H460 lung
[3] = test system: SF-539 CNS
[4] = test system: CAKI-1 renal
[5] = test system: A549 NSCLC
[6] = test system: K-562 leukemia
[7] = test system: KM12 colon
[8] = test system: COLO 205 colon
[9] = test system: SK-OV-3 ovarian
[10] = test system: NCI-H226 lung

Row | SMILES | GI50 [1] [µM] | TGI [1] [µM] | GI50 [2] [µM] | TGI [2] [µM] | GI50 [3] [µM] | TGI [3] [µM] | GI50 [4] [µM] | TGI [4] [µM] | GI50 [5] [µM] | TGI [5] [µM] | GI50 [6] [µM] | TGI [6] [µM] | GI50 [7] [µM] | TGI [7] [µM] | GI50 [8] [µM] | TGI [8] [µM] | GI50 [9] [µM] | TGI [9] [µM] | TGI [10] [µM] | GI50 [10] [µM]
1 | Cc1cn(Cc2ccccc2CCl)c(=O)n(Cc2ccccc2CCl)c1=O | 1.93 | 5.5 | 1.98 | 4.67 | 2.47 | 5.65 | 1.86 | 3.3 | 3.9 | 14.2 | 3.19 | 10 | 1.99 | 4.48 | 1.53 | 3.54 | 3.27 | 9.62 | – | –
2 | CCOC(=O)C1Oc2ccc([N+](=O)[O-])cc2C1(C)O (stereo unspecified) | – | > 100 | – | > 100 | – | > 100 | – | – | – | > 100 | – | > 100 | – | > 100 | – | > 100 | – | > 100 | > 100 | –
3 | [O-][n+]1c2cc(CN3CCOCC3)c(CN3CCOCC3)cc2[n+]([O-])c2c(O)cccc21 | – | 4.02 | – | 4.5 | – | 2.82 | – | > 23.9 | – | > 25.3 | – | – | – | 8.55 | – | 11.1 | – | 13.5 | 30.9 | –
4 | O=C(O)c1cc(=O)c2cc(C(=O)c3cccs3)c(Cl)c(Cl)c2o1 | – | > 100 | – | > 100 | – | – | – | > 100 | – | > 100 | – | > 100 | – | > 100 | – | – | – | > 100 | > 100 | –
5 | COC1(Cc2ccccc2)C(=O)c2ccccc2N1C(C)=O (stereo unspecified) | – | > 100 | – | > 100 | – | > 100 | – | > 100 | – | > 100 | – | > 100 | – | > 100 | – | > 100 | – | > 100 | – | –
6 | O=C1NC(SCc2ccc(F)cc2)=N/C1=C/c1cccc(OCc2ccc(Cl)cc2)c1 | 64.2 | > 100 | 4.39 | 30.3 | 4.87 | 72.2 | – | – | 6.61 | > 100 | 28.8 | > 100 | > 100 | > 100 | > 100 | > 100 | 36.9 | > 100 | > 100 | 5.42
7 | OC1c2ccccc2C2C(O)c3ccccc3C12 (stereo unspecified) | – | > 100 | – | > 100 | – | > 100 | – | > 100 | – | > 100 | – | > 100 | – | > 100 | – | > 100 | – | > 100 | – | –
8 | CCOC(=O)c1cn(CC)c2cc3c(cc2c1=O)SCS3 | – | > 100 | – | > 100 | – | > 100 | – | > 100 | – | > 100 | – | > 100 | – | > 100 | – | > 100 | – | > 100 | – | –
9 | COc1ccc2c(c1OC)C(=O)O[C@@H]2[C@H]1c2c(c(Br)c3c(c2OC)OCO3)CCN1C | – | – | 3.6 | > 100 | 7.09 | > 100 | 4.22 | 37.5 | 8.57 | > 100 | 2.73 | > 100 | 4.49 | > 100 | 27.1 | > 100 | > 100 | > 100 | > 100 | 44.1
10 | COc1ccc(CN=C(N)N=C(N)N)cc1OC | – | – | > 1000 | > 1000 | > 1000 | > 1000 | > 1000 | > 1000 | 404 | > 1000 | 362 | > 1000 | > 1000 | > 1000 | > 1000 | > 1000 | > 1000 | > 1000 | > 1000 | 619
11 | O=[N+]([O-])c1cc2c(ccc3occc32)o1 | 1.87 | 7.88 | – | – | 2.02 | 4.55 | 1.87 | 4.57 | 3.21 | 12.4 | 2.14 | 8.03 | 2.78 | 7.31 | 1.57 | 3.12 | 3.03 | 9.66 | 31.7 | 4.04
12 | CCCC(CCC)C(=O)OCC1(CO)C/C(=C\c2ccc(C(F)(F)F)cc2)C(=O)O1 (stereo unspecified) | – | – | 3.04 | 21.7 | 11.8 | 24.2 | 6.16 | 21.2 | 5.69 | 26.3 | 0.823 | 20.6 | 13.7 | 28.6 | 0.577 | 9.37 | 19.7 | 34 | 33.1 | 14.1
13 | COc1ccc(/C=N\O[Si](C)(C)C(C)(C)C)cc1O[Si](C)(C)C(C)(C)C | – | 48 | – | 46.3 | – | 37.9 | – | 40.2 | – | 34.9 | – | 37.2 | – | 32.7 | – | 52.2 | – | 46.5 | – | –
14 | COC(=O)C1=C(c2ccc(Cl)cc2)C(O)N=C(NN)N1 (stereo unspecified) | – | > 100 | – | > 100 | – | > 100 | – | > 100 | – | > 100 | – | > 100 | – | > 100 | – | – | – | > 100 | > 100 | –
15 | COc1cc2c(cc1OCCCCCn1c3ccccc3c3ccccc31)N=C[C@@H]1CCCN1C2=O | – | – | – | – | 1.85 | 3.37 | 1.93 | 4.58 | 1.57 | 3.02 | – | – | 1.96 | 3.74 | 2.11 | 4.57 | 4.57 | 16.8 | 8.48 | 2.49
16 | CC(C)=CCc1cc(C2COc3cc4c(c(O)c3C2=O)C=CC(C)(C)O4)c(O)cc1O (stereo unspecified) | – | 28.7 | – | 27.4 | – | 34.3 | – | 30.9 | – | 27.9 | – | 10.7 | – | 32.7 | – | 49.9 | – | 29.8 | – | –
17 | O=CN1N=C(c2ccc(Nc3ccnc4cc(Cl)ccc34)cc2)CC1c1ccc(Cl)cc1 (stereo unspecified) | – | – | 0.592 | > 100 | 0.575 | > 100 | 0.409 | > 100 | 0.992 | > 100 | – | – | 0.538 | > 100 | 2.4 | > 100 | – | – | > 100 | 4.66
